Source: patent publication US20250275959A1, “COMPOUNDS AND METHODS OF THEIR USE” (LEXICON PHARMACEUTICALS, INC., priority 2024, published 2025)
“Also recorded” adds a separate entry of the source.

Legend:
[1] = Murine diet-induced obesity (DIO) model, Compound A study; assay type: in vivo, C57BL/6J mice; settings: DIO mice
Procedure: The effects of four representative compounds of the invention were tested in a mouse model of diet-induced obesity (DIO): • Compound A is (R)—N-(tert-butylsulfonyl)-4-(1-(5-(pyridin-3-yloxy)pyridin-2-yl)ethoxy)-3-(trifluoromethyl)benzamide; • Compound B is (R)-4-(1-(5-(cyclopropylmethoxy)pyridin-2-yl)propoxy)-N-((4-(2-(dimethylamino)ethoxy)phenyl)sulfonyl)-2,3-difluorobenzamide; • Compound C is (R)—N-((4-(2-(dimethylamino)ethoxy)piperidin-1l-yl)sulfonyl)-2,3-difluoro-4-(1-(5-(pyridin-2-yloxy)pyridin-2-yl)propoxy)benzamide; and • Compound D is (R)-2,3-difluoro-N-((4-methylpiperazin-1-yl)sulfonyl)-4-(1-(5-(pyridin-2-yloxy)pyridin-2-yl)propoxy)benzamide.
The mice used in these experiments were C57BL/6J mice fed a high-fat diet (D12492 from Research Diets) ad libitum during the study period. The vehicle and test article formulations were 10% w/v Solutol in water.
After a seven-day acclimation period, the DIO model was induced by putting the mice on a high fat diet for ten weeks. After the ten weeks, the DIO mice were equally divided into groups based on body weight, ten mice in each group: the control group (Vehicle) and Compound A at 30 mg/kg.
The animals were pre-dosed for two days prior to formal dosing (once-per-day treatment for every group). From Day 1 to Day 13, the animals in the dosing group were administered orally by gavage at 5:00 p.m. every day as well as weight and food intake were recorded daily. All animals were fasted overnight after dosing on Day 1, Day 4, Day 12 and Day 13, then the blood (retro-orbital bleed) of mice from each group was collected at 7:00 a.m. to separate out the serum on Day 2, Day 5 and Day 13 for measuring total cholesterol levels (TC), triglyceride (TG), aminotransferase alanine (ALT), aspartate aminotransferase (AST) and total bilirubin (TBil) levels. All animals were performed OGTT test (0 min, 30 min, 60 min and 120 min) and measured insulin levels (0 min and 30 min) on Day 14.
• 1. Body weight and Food Consumption: Pre-dose every day starting from Day −1 onwards. • 2. Day −1 and Day 0: Handle mice and gavage with vehicle. • 3. Day 1: Dose˜5:00 PM. Fast overnight. • 4. Day 2: Determine total cholesterol levels and triglyceride, ALT, AST, Total Bilirubin levels 7:00 AM. Resume feeding. • 5. Day 2-3: Dose˜5:00 PM. • 6. Day 4: Dose˜5:00 PM. Fast overnight. • 7. Day 5: Determine total cholesterol levels and triglyceride, ALT, AST, Total Bilirubin levels˜7:00 AM. Resume feeding. • 8. Day 5˜11: Dose˜5:00 PM. • 9. Day 12: Dose˜5:00 PM. Fast overnight. • 10. Day 13: Determine total cholesterol levels and triglyceride, ALT, AST, Total Bilirubin levels 7:00 AM. Resume feeding. • 11. Day 13: Dose˜5:00 PM. Fast overnight. • 12. Day 14: (No drug administration) Oral glucose tolerance test with glucose levels measured at Pre-dose, 30 min, 60 min and 120 min. And insulin levels at Time 0 min, 30 min after the glucose challenge.
Data was provided as mean±SD. Statistical significance was considered when the P value is less than 0.05. Results were analyzed by SPSS software. […]. T-test was used to calculate P value. […]

[2] = biological target: T1, hACSL5 (Homo sapiens (Human), UniProt Q9ULC5); experiment: Cell-based assay (CBA) with B12FA in hACSL5-transfected Expi293F / FlpIn TRex293 cells; settings: hACSL5-expressing cells
How it was run: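 hACSL5-expressing Expi293F or tetracycline-induced FlpIn TRex293 cells, serum- and glucose-starved 1 h, then treated 3 h with serially diluted compound plus 20 µM B12FA. After fixation, 630/520 nm emission ratio (ex 485 nm) gave % inhibition versus no-inhibitor and 10 µM compound/non-induced controls; IC50 by Hill fit.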
Target sequence in this assay (Q9ULC5 whole entry): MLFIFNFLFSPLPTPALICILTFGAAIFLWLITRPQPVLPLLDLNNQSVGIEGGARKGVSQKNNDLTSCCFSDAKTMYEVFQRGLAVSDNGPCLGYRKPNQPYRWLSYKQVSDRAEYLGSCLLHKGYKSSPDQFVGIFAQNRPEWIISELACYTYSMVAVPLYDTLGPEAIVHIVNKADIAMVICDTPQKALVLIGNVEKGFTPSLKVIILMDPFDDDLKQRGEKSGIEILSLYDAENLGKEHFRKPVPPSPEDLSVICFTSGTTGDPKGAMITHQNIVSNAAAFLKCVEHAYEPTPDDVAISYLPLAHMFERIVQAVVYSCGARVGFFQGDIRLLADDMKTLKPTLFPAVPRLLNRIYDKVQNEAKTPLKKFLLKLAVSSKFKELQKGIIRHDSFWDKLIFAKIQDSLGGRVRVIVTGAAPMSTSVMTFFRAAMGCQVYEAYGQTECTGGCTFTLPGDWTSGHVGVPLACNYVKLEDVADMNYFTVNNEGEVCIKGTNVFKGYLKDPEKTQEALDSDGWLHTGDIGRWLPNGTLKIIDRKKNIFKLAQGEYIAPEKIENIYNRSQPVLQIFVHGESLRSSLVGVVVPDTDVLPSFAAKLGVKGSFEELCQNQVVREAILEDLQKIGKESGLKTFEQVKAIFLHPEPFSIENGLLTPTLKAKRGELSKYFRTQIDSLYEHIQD

[3] = biological target: T1, hACSL5; experiment: Human ACSL5 coupled enzyme Amplex Red assay; assay type: biochemical; settings: read-out: hACSL5 IC50
How it was run: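 C-terminally His-tagged ACSL5 (33-683) from sf9 cells, 20 nM, was preincubated with compound in MOPS-NaOH pH 7.6 with MgCl2, peroxidase and acyl-CoA oxidase. Reactions were started with 25 μM oleate, 30 μM CoA, 1 mM ATP and 50 μM Amplex Red; fluorescence (535/590 nm) after 10 minutes at 25° C. was fitted to the Hill equation for IC50 and maximal inhibition.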
Target sequence in this assay (Q9ULC5 33-683): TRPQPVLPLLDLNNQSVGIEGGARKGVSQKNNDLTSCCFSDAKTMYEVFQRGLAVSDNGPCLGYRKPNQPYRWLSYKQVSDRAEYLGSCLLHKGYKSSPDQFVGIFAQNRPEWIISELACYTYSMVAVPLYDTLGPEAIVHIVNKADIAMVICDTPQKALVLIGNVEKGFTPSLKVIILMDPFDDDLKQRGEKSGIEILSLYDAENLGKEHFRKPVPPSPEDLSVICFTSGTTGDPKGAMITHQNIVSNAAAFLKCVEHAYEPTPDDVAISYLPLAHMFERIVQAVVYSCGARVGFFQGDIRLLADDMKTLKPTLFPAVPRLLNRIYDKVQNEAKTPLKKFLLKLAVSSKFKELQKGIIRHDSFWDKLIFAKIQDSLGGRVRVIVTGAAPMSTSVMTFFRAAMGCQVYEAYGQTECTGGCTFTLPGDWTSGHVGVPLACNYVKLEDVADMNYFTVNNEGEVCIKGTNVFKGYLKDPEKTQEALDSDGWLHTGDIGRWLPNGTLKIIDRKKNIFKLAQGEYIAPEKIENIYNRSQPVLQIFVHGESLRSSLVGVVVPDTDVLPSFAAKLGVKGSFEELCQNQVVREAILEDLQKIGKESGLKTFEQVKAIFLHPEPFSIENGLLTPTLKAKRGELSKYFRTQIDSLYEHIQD

Structure (SMILES) | Body Weight (g)/Day ([1]; 30 mg/kg oral daily, Day 1) | Body Weight (g)/Day ([1]; 30 mg/kg oral daily, Day 2) | Body Weight (g)/Day ([1]; 30 mg/kg oral daily, Day 3) | Body Weight (g)/Day ([1]; 30 mg/kg oral daily, Day 4) | Body Weight (g)/Day ([1]; 30 mg/kg oral daily, Day 5) | Body Weight (g)/Day ([1]; 30 mg/kg oral daily, Day 6) | Body Weight (g)/Day ([1]; 30 mg/kg oral daily, Day 7) | Body Weight (g)/Day ([1]; 30 mg/kg oral daily, Day 8) | Body Weight (g)/Day ([1]; 30 mg/kg oral daily, Day 9) | Body Weight (g)/Day ([1]; 30 mg/kg oral daily, Day 10) | Body Weight (g)/Day ([1]; 30 mg/kg oral daily, Day 11) | Body Weight (g)/Day ([1]; 30 mg/kg oral daily, Day 12) | mean body weight versus control group ([1]; 30 mg/kg oral daily, Day −1 to Day 12) | Body Weight (g)/Day ([1]; 30 mg/kg, Day 0 (pre-dose)) | Body Weight (g)/Day ([1]; 30 mg/kg, Day −1 (pre-dose)) | IC50 [2] | IC50 [3]
C[C@@H](Oc1ccc(C(=O)NS(=O)(=O)C(C)(C)C)cc1C(F)(F)F)c1ccc(Oc2cccnc2)cn1 [Compound A, (R)—N-(tert-butylsulfonyl)-4-(1-(5-(pyridin-3-yloxy)pyridin-2-yl)ethoxy)-3-(trifluoromethyl)benzamide] | 37.9 ± 1.4 g | 36.6 ± 1.4 g | 35.8 ± 1.5 g | 35.3 ± 1.4 g | 34.3 ± 1.3 g | 34.2 ± 1.2 g | 34.0 ± 1.3 g | 33.9 ± 1.4 g | 33.5 ± 1.4 g | 33.4 ± 1.3 g | 32.9 ± 1.4 g | 32.8 ± 1.3 g | significantly lower than that of the control group from Day 8 onwards; also recorded: statistically significant effect on the mice's body weights versus control | 38.3 ± 1.4 g | 38.5 ± 1.6 g |  | 
CC[C@@H](Oc1ccc(C(=O)NS(=O)(=O)N2CCN(C3CC3)CC2)c(F)c1F)c1ccc(OC2CC(OC)C2)cn1 (stereo partly drawn) [N-((4-cyclopropylpiperazin-1-yl)sulfonyl)-2,3-difluoro-4-((R)-1-(5-((1R,3R)-3-methoxycyclobutoxy)pyridin-2-yl)propoxy)benzamide] |  |  |  |  |  |  |  |  |  |  |  |  |  |  |  | 0.1 to 0.5 µM | < 0.1 µM
CC[C@@H](Oc1ccc(C(=O)NS(=O)(=O)N2CCN(C)[C@@H](C)C2)c(F)c1F)c1ccc(Oc2ccccn2)cn1 [N-(((S)-3,4-dimethylpiperazin-1-yl)sulfonyl)-2,3-difluoro-4-((R)-1-(5-(pyridin-2-yloxy)pyridin-2-yl)propoxy)benzamide] |  |  |  |  |  |  |  |  |  |  |  |  |  |  |  | < 0.1 µM | < 0.1 µM
